# Data as given in publication PMC11601558, “SLC6A19 inhibition facilitates urinary neutral amino acid excretion and lowers plasma phenylalanine” (JCI Insight, 2024).
# Where “and” joins values, the source holds several entries; their conditions need not be identical. Equal values may be shown once.
# Test system: WT C57Bl/6J mice
# Assay: Urine amino acid excretion in WT C57Bl/6J mice after JN-170
# Assay type: in vivo, mouse
# Design: urine Gln excretion / urine Phe excretion: unit not given here
# Conditions: for 12 hour urine Arg (Fig 2b) / 12 hour urine Gln (Fig 2b) / 12 hour urine Glu (Fig 2b) / 12 hour urine His (Fig 2b) / 12 hour urine Lys (Fig 2b) / 12 hour urine Met (Fig 2b) / 12 hour urine Phe (Fig 2b) / 12 hour urine Pro (Fig 2b) / 12 hour urine Ser (Fig 2b) / 12 hour urine Thr (Fig 2b) / 12 hour urine Trp (Fig 2b) / 12 hour urine Tyr (Fig 2b): individual mice
# Procedure: Male homozygous BTBR-Pah<enu2>/J (Pah^enu2) aged 10–13 weeks were purchased from Jackson Laboratory (no. 002232). Immediately before dosing, each animal’s bladder was manually emptied and a plasma sample was drawn. Animals were dosed by oral gavage with vehicle (10% DMSO, 20% 2-hydroxypropyl-β-cyclodextrin [Sigma-Aldrich]) followed by a 1-week washout prior to dosing with JN-170 at doses ranging from 50 to 250 mg/kg. Following dosing with vehicle or JN-170, animals were individually placed in metabolic cages to collect urine samples. After collection of each urine sample, cages were rinsed with ultra-pure water to recover residual analytes. Blood samples were collected predose as well as 1, 3, 8, 12, and 24 hours after dosing with vehicle or JN-170 into tubes with EDTA as a […], and plasma was separated by centrifuging samples at 2,200g for 5 minutes at 4°C. Throughout the study, mice had access to food and water ad libitum. Plasma and urine samples were stored at –80°C until processing.Ten-week-old male WT C57Bl/6J animals (Si Bei Fu Laboratory Animal Technology Co. Ltd.) were dosed either with vehicle or 50–250 mg/kg JN-170 by oral gavage and blood and urine samples were collected as described. All animals had unrestricted access to food and water during the study; C57Bl/6J were kept on rodent maintenance diet from Beijing Keao Xieli, Pah^enu2 mice were kept on Teklad diet no. T.2018.
# Urine and cage-wash samples were vortexed and centrifuged at 3,700g for 5 minutes to remove any solid precipitate. Neat samples and samples diluted 1:10 in water were further diluted 1:10 in crash solution (75% acetonitrile 25% methanol, 0.1% formic acid, 5 mM heavy labeled amino acids) to precipitate proteins. Samples were centrifuged at 3,700g for 5 minutes before the supernatant was transferred into an injection plate. Urine amino acid analysis was carried out using a quadrupole time of flight (QToF) LC-mass spectrometry (QToF-LC-MS) bioanalytical method. A standard curve of 1 mM down to 0.06 μM was used as the calibration curve to which samples were quantified. The amino acid concentrations were calculated with a 1/×2 linear regression over a concentration range of 60 nM to 1,000 μM of the individual amino acids. An Agilent QToF 6545 was operated in an accurate mass full scan range of 100–1,700 m/z positive ions formed by electrospray ionization with a normal phase HILIC chromatographic method. An Agilent InfinityLab Poroshell 120 HILIC-Z, 2.1 × 150 mm, 2.7 μm was used as the analytical column with 10 mM Ammonium Acetate in 0.1% FA as mobile phase A and 10 mM Ammonium Acetate in 95% ACN, 0.1% FA as mobile phase B. At a flow rate of 0.25 mL/min, the binary gradient increased from an initial 100% phase B to 90% phase B over 3 minutes. After 1.5 minutes, the gradient ramped to 80% mobile phase B. At 5.6 minutes into the gradient, mobile phase B ramped from 60% to 0% and held for 2 minutes before returning to initial conditions at 7.5 minutes. The gradient was stopped at 10 minutes.Total urine amino acid amounts were calculated by multiplying urine amino acid concentrations by the urine volume and adding the amount of amino acid recovered in the cage wash, which was calculated by multiplying the cage wash amino acid concentration by the cage wash volume.
# [1] = Fig S3b, WT mice, individual animals
# [2] = WT mice, 0–3 hours after 200 mg/kg
compound,measurement,setting,value
N#Cc1ccc(-c2noc([C@]3(C(F)(F)F)CCN(C(=O)NCCC4(N)CC4)C3)n2)cc1 [JN-170],12 hour urine Arg (Fig 2b),50 mg/kg single oral dose,42.35 µg and 21.61 µg and 86.86 µg and 32.17 µg and 60.46 µg and 54.76 µg
same,12 hour urine Gln (Fig 2b),50 mg/kg single oral dose,1216.88 µg and 424.1 µg and 3207.04 µg and 1668.39 µg and 2208.59 µg and 1050.68 µg
same,12 hour urine Glu (Fig 2b),50 mg/kg single oral dose,29.83 µg and 17.33 µg and 39.89 µg and 30.41 µg and 48.52 µg and 28.91 µg
same,12 hour urine His (Fig 2b),50 mg/kg single oral dose,99.8 µg and 39.7 µg and 232.38 µg and 133.78 µg and 173.51 µg and 97.64 µg
same,12 hour urine Lys (Fig 2b),50 mg/kg single oral dose,34.24 µg and 15.87 µg and 87.69 µg and 25.64 µg and 70.14 µg and 37.6 µg
same,12 hour urine Met (Fig 2b),50 mg/kg single oral dose,22.43 µg and 9.44 µg and 86.47 µg and 39.61 µg and 54.33 µg
same,12 hour urine Phe (Fig 2b),50 mg/kg single oral dose,9.69 µg and 12.9 µg and 44.78 µg and 18.25 µg and 46.82 µg and 10.07 µg
same,12 hour urine Pro (Fig 2b),50 mg/kg single oral dose,8.47 µg and 4.8 µg and 12.9 µg and 9.81 µg and 24.06 µg and 10.26 µg
same,12 hour urine Ser (Fig 2b),50 mg/kg single oral dose,30.76 µg and 12.92 µg and 98.91 µg and 47.01 µg and 97.58 µg and 29.03 µg
same,12 hour urine Thr (Fig 2b),50 mg/kg single oral dose,158.71 µg and 83.75 µg and 358.72 µg and 229.83 µg and 330.77 µg and 183.12 µg
same,12 hour urine Trp (Fig 2b),50 mg/kg single oral dose,7.91 µg and 4.53 µg and 17.51 µg and 12.59 µg and 19.36 µg and 8.39 µg
same,12 hour urine Tyr (Fig 2b),50 mg/kg single oral dose,86.45 µg and 42.23 µg and 289.76 µg and 150.67 µg and 234.77 µg and 101.34 µg
same,12 hour urine Arg (Fig 2b),100 mg/kg single oral dose,84.18 µg and 60.05 µg and 104.07 µg and 105.27 µg and 46.38 µg and 44.86 µg
same,12 hour urine Gln (Fig 2b),100 mg/kg single oral dose,3618.3 µg and 3716.4 µg and 5677.3 µg and 3847.03 µg and 3083.95 µg and 2876.64 µg
same,12 hour urine Glu (Fig 2b),100 mg/kg single oral dose,46.32 µg and 46.97 µg and 58.94 µg and 50.51 µg and 40.88 µg and 28.49 µg
same,12 hour urine His (Fig 2b),100 mg/kg single oral dose,295.94 µg and 255.87 µg and 436.69 µg and 286 µg and 268.58 µg and 216 µg
same,12 hour urine Lys (Fig 2b),100 mg/kg single oral dose,113.28 µg and 69.96 µg and 170.84 µg and 119.16 µg and 64.12 µg and 61.63 µg
same,12 hour urine Met (Fig 2b),100 mg/kg single oral dose,69.6 µg and 61.3 µg and 109.16 µg and 65.46 µg and 59.17 µg and 56.84 µg
same,12 hour urine Phe (Fig 2b),100 mg/kg single oral dose,57.79 µg and 56.42 µg and 118.09 µg and 57.72 µg and 36.93 µg and 35.59 µg
same,12 hour urine Pro (Fig 2b),100 mg/kg single oral dose,8.92 µg and 10.04 µg and 30.88 µg and 13.13 µg and 10.09 µg and 9.04 µg
same,12 hour urine Ser (Fig 2b),100 mg/kg single oral dose,108.24 µg and 109.95 µg and 223.3 µg and 89.79 µg and 97.93 µg and 80.73 µg
same,12 hour urine Thr (Fig 2b),100 mg/kg single oral dose,506.96 µg and 408.61 µg and 713.8 µg and 526.01 µg and 450.28 µg and 363.04 µg
same,12 hour urine Trp (Fig 2b),100 mg/kg single oral dose,23.65 µg and 18.61 µg and 32.89 µg and 21.7 µg and 20.33 µg and 13.52 µg
same,12 hour urine Tyr (Fig 2b),100 mg/kg single oral dose,347.53 µg and 292.84 µg and 493.76 µg and 286.11 µg and 269.6 µg and 215.7 µg
same,12 hour urine Arg (Fig 2b),200 mg/kg single oral dose,57.75 µg and 78.23 µg and 75.91 µg and 43.73 µg and 83.72 µg and 75.77 µg
same,12 hour urine Gln (Fig 2b),200 mg/kg single oral dose,4199.73 µg and 4322.77 µg and 4076.82 µg and 4061.16 µg and 5861.18 µg and 4643.5 µg
same,12 hour urine Glu (Fig 2b),200 mg/kg single oral dose,38.45 µg and 57.79 µg and 49.69 µg and 35.38 µg and 50.26 µg and 67.43 µg
same,12 hour urine His (Fig 2b),200 mg/kg single oral dose,416.82 µg and 349.23 µg and 335.84 µg and 309.72 µg and 451.38 µg and 370.2 µg
same,12 hour urine Lys (Fig 2b),200 mg/kg single oral dose,104.5 µg and 123.16 µg and 131.26 µg and 79.18 µg and 151.5 µg and 70.63 µg
same,12 hour urine Met (Fig 2b),200 mg/kg single oral dose,123.47 µg and 86.31 µg and 49.16 µg and 59.08 µg and 101.09 µg and 139.58 µg
same,12 hour urine Phe (Fig 2b),200 mg/kg single oral dose,133.44 µg and 84.26 µg and 51.41 µg and 40.35 µg and 175.28 µg and 83.35 µg
same,12 hour urine Pro (Fig 2b),200 mg/kg single oral dose,13.11 µg and 14.35 µg and 18.33 µg and 8.21 µg and 20.58 µg and 15.61 µg
same,12 hour urine Ser (Fig 2b),200 mg/kg single oral dose,170.69 µg and 159.37 µg and 110.1 µg and 92.34 µg and 194.17 µg and 159.84 µg
same,12 hour urine Thr (Fig 2b),200 mg/kg single oral dose,631.21 µg and 617.4 µg and 618.83 µg and 576.45 µg and 832.11 µg and 699.79 µg
same,12 hour urine Trp (Fig 2b),200 mg/kg single oral dose,40.01 µg and 30.26 µg and 27.35 µg and 18.62 µg and 33.13 µg and 31.85 µg
same,12 hour urine Tyr (Fig 2b),200 mg/kg single oral dose,480.66 µg and 434.44 µg and 355.04 µg and 315.96 µg and 607.88 µg and 491.56 µg
same,12 hour urine Arg (Fig 2b),250 mg/kg single oral dose,80.65 µg and 55.84 µg and 88.5 µg and 63.14 µg and 86.48 µg and 72.88 µg
same,12 hour urine Gln (Fig 2b),250 mg/kg single oral dose,7107.31 µg and 3727.75 µg and 5603.56 µg and 4267.69 µg and 6411.47 µg and 5312.07 µg
same,12 hour urine Glu (Fig 2b),250 mg/kg single oral dose,72.56 µg and 44.09 µg and 57.4 µg and 37.58 µg and 54.56 µg and 45.85 µg
same,12 hour urine His (Fig 2b),250 mg/kg single oral dose,551.64 µg and 312.28 µg and 484.93 µg and 357.16 µg and 531.6 µg and 380.26 µg
same,12 hour urine Lys (Fig 2b),250 mg/kg single oral dose,195.46 µg and 113.58 µg and 174.58 µg and 158.8 µg and 185.91 µg and 135.3 µg
same,12 hour urine Met (Fig 2b),250 mg/kg single oral dose,187.74 µg and 68.61 µg and 113.61 µg and 89.08 µg and 102.86 µg and 165.83 µg
same,12 hour urine Phe (Fig 2b),250 mg/kg single oral dose,183.47 µg and 73.49 µg and 113.19 µg and 97.89 µg and 98.25 µg and 112.7 µg
same,12 hour urine Pro (Fig 2b),250 mg/kg single oral dose,23.91 µg and 11.83 µg and 17.19 µg and 13.18 µg and 15.23 µg and 18.44 µg
same,12 hour urine Ser (Fig 2b),250 mg/kg single oral dose,292.3 µg and 114.91 µg and 195.78 µg and 144.05 µg and 202.42 µg and 201.61 µg
same,12 hour urine Thr (Fig 2b),250 mg/kg single oral dose,952.09 µg and 536.61 µg and 931.14 µg and 639.81 µg and 964.07 µg and 684.47 µg
same,12 hour urine Trp (Fig 2b),250 mg/kg single oral dose,51.77 µg and 27.86 µg and 38.14 µg and 35.4 µg and 37.19 µg and 32.26 µg
same,12 hour urine Tyr (Fig 2b),250 mg/kg single oral dose,668.76 µg and 364.7 µg and 555.89 µg and 445.94 µg and 662.56 µg and 523.46 µg
same,increase in urinary Gln excretion vs vehicle,"250 mg/kg, 12 h urine",84 fold
same,increase in urinary His excretion vs vehicle,"250 mg/kg, 12 h urine",32 fold
same,increase in urinary Thr excretion vs vehicle,"250 mg/kg, 12 h urine",29 fold
same,"urinary Gln excretion, mean ± SD","250 mg/kg, 12 h urine","5,405 ± 1270 μg"
same,"urinary His excretion, mean ± SD","250 mg/kg, 12 h urine",436 ± 100 µg
same,"urinary Thr excretion, mean ± SD","250 mg/kg, 12 h urine",785 ± 187 µg
same,"urinary Pro excretion, mean ± SD","250 mg/kg, 12 h urine, effect negligible",17 ± 4 µg
same,urine Gln excretion,[1],1587.77 and 1811.58 and 1136.33 and 1371.1 and 1542.95 and 797.75
same,urine Phe excretion,[1],31.41 and 35.2 and 15.95 and 12.69 and 89.66 and 34.45
same,"glutamine excreted in urine, mean ± SD",[2],"1,375 ± 362 μg"
same,"urinary excretion of Phe, mean ± SD",[2],37 ± 28 µg
